Read-outs that look alike come from different tables or passages of the source.
How the values were obtained:
[1] = test system: NB1691 neuroblastoma cells (WT); test: xCELLigence in vitro growth inhibition and Chou-Talalay combination index; format: cell-based; conditions: Homo sapiens
[2] = test system: SH-SY5Y (F1174L) human neuroblastoma cells; test: Cell morphology and cell death by optical microscopy; format: cell-based; conditions: each compound at its IC50, 72 hours after treatment
From the text: Synergistic anti-proliferative effect of the combination of our invention was visualized by optical microscopy. […] Seventy-two hours after treatment, the treated samples were compared to the untreated samples (vehicle) by optical microscopy and recorded in micrographs (FIGS. 10A to D).

[3] = test system: NB1643 neuroblastoma cells (R1275Q); test: xCELLigence in vitro growth inhibition and Chou-Talalay combination index; conditions: for IC50: Homo sapiens; for Dose Reduction Index (DRI, from calculations) / Drug alone dose giving Fa (calculated) / Dose Reduction Index (DRI) / Drug alone dose giving Fa: NB1643; for Dose Reduction Index (DRI, from calculations) / Drug alone dose giving Fa (calculated): Table 7; for Dose Reduction Index (DRI): A1 and B co-treatment
Description: The concentration dependence of the anti-proliferation effect for both combination partners, first alone and then in combination were measured using the xCELLigence system. CI for each of the treatments was computed by CalcuSyn v2 software (Biosoft, MO).
In vitro inhibitory activity was determined in five (5) neuroblastoma cell lines with a 96-well Real-Time Cell Electronic Sensing xCELLigence system (ACEA, San Diego, Calif.) which measures a “cell index”. Cell index is derived from alterations in electrical impedance as cells interact with the biocompatible microelectrode surface in each well to measure substrate adherent proliferation. […] After 24 hours, the plated cells were treated in triplicate with the test compound, each dose as indicated or with DMSO vehicle control. […] At 72 hours after drug exposure, the cell index was recorded.
The IC50 was calculated using GraphPad Prism 5.0 four parameter variable slope fitting. These values were used in dosing of the combination study which follows.
Drug combination effects and quantification of synergy were determined using the Chou-Talalay combination index method (Trends Pharmacol Sci 4, 450-454) and CalcuSyn v2 software (Biosoft, MO) in four neuroblastoma cell lines. Cells were plated and in vitro proliferation was measured using the xCELLigence system as described above.
The anti-proliferation potency of each individual agent was estimated by the median-effect dose, Dm. […] Fa=0 is determined based on DMSO control by the dose, and Fa=1 is a full response (no viable cells left) and. • Fu: fraction unaffected by dose where fu=1−fa.
The effect of combination drug effects was determined utilizing the combination index (CI) as defined by Chou according to the following equation:
where (Dx)1 and (Dx)2 are the concentrations of compounds D1 and D2 needed to produce a given level of anti-proliferative effect when used individually, whereas (D)1 and (O)2 are their concentrations that produce the same anti-proliferative effect when used in combination. The combination index is a quantitative measure of drug interaction defined as an additive effect (CI=1), antagonism (CI>1), or synergy (CI<1). Typically, a CI range, as used herein, is used to assess synergy. A combination index of 0.9-1.1 indicates additive interaction, values below 0.9 indicate synergism, and values over 1.1 indicate antagonism. The follow is a description of the CI ranges: • <0.1+++++ Very strong synergism • 0.1-0.3++++ Strong synergism • 0.3-0.7+++ Synergism • 0.7-0.85++ Moderate synergism • 0.85-0.90+ Slight synergism • 0.90-1.10± Nearly additive • 1.10-1.20− Slight antagonism • 1.20-1.45−− Moderate antagonism
The combination index was used to assess the Dose-Reduction Index (DRI) (Chou and Chou, 1988), where:
CI=(D)1/(Dx)1+(D)2/Dx)2=1/(DRI)1+1/(DRI)2
The DRI estimates how much the dose of each drug can be reduced when synergistic drugs are given in combination, while still achieving the same effect size as each drug administered individually.

[4] = NB-1691, 72 hours, single agent, read-out: IC50
[5] = NB-1691, single agent, read-out: Dm (median-effect dose)
[6] = NB-1643, read-out: Dm (median-effect dose)
[7] = Fa 0.51, Table 6, from experimental values
[8] = Fa 0.75, Table 6, from experimental values
[9] = Fa 0.83, Table 6, from experimental values
[10] = Fa 0.9, first of two Fa 0.9 lines, Table 6
[11] = Fa 0.9, second of two Fa 0.9 lines, Table 6

## Cc1cc(Nc2ncc(Cl)c(Nc3ccccc3S(=O)(=O)C(C)C)n2)c(OC(C)C)cc1C1CCNCC1 [Compound A1, 5-chloro-N2-(2-isopropoxy-5-methyl-4-(piperidin-4-yl)phenyl)-N4-[2-(propane-2-sulfonyl)-phenyl]-pyrimidine-2,4-diamine]
[1]; [4]
  IC50: 1930 nM
[1]; [5]
  IC50: 762 nM
[2]
  Intact cells and cell morphology by micrograph: significant reduction in the number of intact cells
[3]; NB-1643, 72 h
  IC50: 222 nM
[3]; [6]
  IC50: 173 nM
[3]; Fa 0.020
  Dose Reduction Index (DRI, from calculations): 3.099
  Drug alone dose giving Fa (calculated): 0.0007501 µM
[3]; Fa 0.050
  Dose Reduction Index (DRI, from calculations): 3.455
  Drug alone dose giving Fa (calculated): 0.0028193 µM
[3]; Fa 0.100
  Dose Reduction Index (DRI, from calculations): 3.764
  Drug alone dose giving Fa (calculated): 0.0080106 µM
[3]; Fa 0.150
  Dose Reduction Index (DRI, from calculations): 3.969
  Drug alone dose giving Fa (calculated): 0.015292 µM
[3]; Fa 0.200
  Dose Reduction Index (DRI, from calculations): 4.130
  Drug alone dose giving Fa (calculated): 0.0248814 µM
[3]; Fa 0.250
  Dose Reduction Index (DRI, from calculations): 4.269
  Drug alone dose giving Fa (calculated): 0.0371953 µM
[3]; Fa 0.300
  Dose Reduction Index (DRI, from calculations): 4.394
  Drug alone dose giving Fa (calculated): 0.0528478 µM
[3]; Fa 0.350
  Dose Reduction Index (DRI, from calculations): 4.510
  Drug alone dose giving Fa (calculated): 0.0727063 µM
[3]; Fa 0.400
  Dose Reduction Index (DRI, from calculations): 4.622
  Drug alone dose giving Fa (calculated): 0.0979951 µM
[3]; Fa 0.450
  Dose Reduction Index (DRI, from calculations): 4.732
  Drug alone dose giving Fa (calculated): 0.130469 µM
[3]; Fa 0.500
  Dose Reduction Index (DRI, from calculations): 4.842
  Drug alone dose giving Fa (calculated): 0.1727061 µM
[3]; [7]
  Dose Reduction Index (DRI): 3.321
  Drug alone dose giving Fa: 0.1826374 µM
[3]; Fa 0.550
  Dose Reduction Index (DRI, from calculations): 4.954
  Drug alone dose giving Fa (calculated): 0.2286167 µM
[3]; Fa 0.600
  Dose Reduction Index (DRI, from calculations): 5.072
  Drug alone dose giving Fa (calculated): 0.3043766 µM
[3]; Fa 0.650
  Dose Reduction Index (DRI, from calculations): 5.198
  Drug alone dose giving Fa (calculated): 0.4102451 µM
[3]; Fa 0.700
  Dose Reduction Index (DRI, from calculations): 5.336
  Drug alone dose giving Fa (calculated): 0.564402 µM
[3]; [8]
  Dose Reduction Index (DRI): 7.224
  Drug alone dose giving Fa: 0.8019141 µM
[3]; Fa 0.750
  Dose Reduction Index (DRI, from calculations): 5.492
  Drug alone dose giving Fa (calculated): 0.8019141 µM
[3]; Fa 0.800
  Dose Reduction Index (DRI, from calculations): 5.676
  Drug alone dose giving Fa (calculated): 1.1987842 µM
[3]; [9]
  Dose Reduction Index (DRI): 7.135
  Drug alone dose giving Fa: 1.5839055 µM
[3]; Fa 0.850
  Dose Reduction Index (DRI, from calculations): 5.907
  Drug alone dose giving Fa (calculated): 1.9505238 µM
[3]; [10]
  Dose Reduction Index (DRI): 8.386
  Drug alone dose giving Fa: 3.7234705 µM
[3]; [11]
  Dose Reduction Index (DRI): 4.193
  Drug alone dose giving Fa: 3.7234705 µM
[3]; Fa 0.900
  Dose Reduction Index (DRI, from calculations): 6.229
  Drug alone dose giving Fa (calculated): 3.7234705 µM
[3]; Fa 0.950
  Dose Reduction Index (DRI, from calculations): 6.786
  Drug alone dose giving Fa (calculated): 10.58 µM
[3]; Fa 0.990
  Dose Reduction Index (DRI, from calculations): 8.200
  Drug alone dose giving Fa (calculated): 106.3 µM

## CN(C)C(=O)c1cc2cnc(Nc3ccc(N4CCNCC4)cn3)nc2n1C1CCCC1 [Compound B, 7-cyclopentyl-N,N-dimethyl-2-((5-(piperazin-1-yl)pyridin-2-yl)amino)-7H-pyrrolo[2,3-d]pyrimidine-6-carboxamide]
[1]; [4]
  IC50: 315 nM
[1]; [5]
  IC50: 2650 nM
[2]
  Intact cells and cell morphology by micrograph: minimal effect in cell numbers and cell morphology
[3]; NB-1643, 72 h
  IC50: 750 nM
[3]; [6]
  IC50: 788 nM
[3]; Fa 0.020
  Drug alone dose giving Fa (calculated): 0.0013507 µM
[3]; Fa 0.050
  Drug alone dose giving Fa (calculated): 0.0063668 µM
[3]; Fa 0.100
  Drug alone dose giving Fa (calculated): 0.021628 µM
[3]; Fa 0.150
  Drug alone dose giving Fa (calculated): 0.0461139 µM
[3]; Fa 0.200
  Drug alone dose giving Fa (calculated): 0.0815448 µM
[3]; Fa 0.250
  Drug alone dose giving Fa (calculated): 0.1305781 µM
[3]; Fa 0.300
  Drug alone dose giving Fa (calculated): 0.1970133 µM
[3]; Fa 0.350
  Drug alone dose giving Fa (calculated): 0.2862422 µM
[3]; Fa 0.400
  Drug alone dose giving Fa (calculated): 0.4060079 µM
[3]; Fa 0.450
  Drug alone dose giving Fa (calculated): 0.5676688 µM
[3]; Fa 0.500
  Drug alone dose giving Fa (calculated): 0.78836 µM
[3]; [7]
  Drug alone dose giving Fa: 0.8417031 µM
[3]; Fa 0.550
  Drug alone dose giving Fa (calculated): 1.0948487 µM
[3]; Fa 0.600
  Drug alone dose giving Fa (calculated): 1.5307866 µM
[3]; Fa 0.650
  Drug alone dose giving Fa (calculated): 2.1712783 µM
[3]; Fa 0.700
  Drug alone dose giving Fa (calculated): 3.1546674 µM
[3]; [8]
  Drug alone dose giving Fa: 4.7596923 µM
[3]; Fa 0.750
  Drug alone dose giving Fa (calculated): 4.7596923 µM
[3]; Fa 0.800
  Drug alone dose giving Fa (calculated): 7.6217203 µM
[3]; [9]
  Drug alone dose giving Fa: 10.56 µM
[3]; Fa 0.850
  Drug alone dose giving Fa (calculated): 13.48 µM
[3]; [10]
  Drug alone dose giving Fa: 28.74 µM
[3]; [11]
  Drug alone dose giving Fa: 28.74 µM
[3]; Fa 0.900
  Drug alone dose giving Fa (calculated): 28.74 µM
[3]; Fa 0.950
  Drug alone dose giving Fa (calculated): 97.62 µM
[3]; Fa 0.990
  Drug alone dose giving Fa (calculated): 1455 µM
